# In publication PMC11944670, “Reshaping [^99mTc]Tc-DT11 to DT14D Tagged with Trivalent Radiometals for NTS1R-Positive Cancer Theranostics” (Pharmaceutics, 2025):
# Residues, ends and D or L forms follow the SMILES beside them. *: point of attachment. DOTA = O=C(O)CN1CCN(CC(=O)O)CCN(CC(=O)*)CCN(CC(=O)O)CC1; X1 = Cc1ccc(CCCC(=O)NCCOCCOCCOCCOCC(=O)*)cc1; βAla = NCCC(=O)O
# Columns and labels:
# in vivo = experiment: in vivo; parameters: species or system mice; details: male, SCID, mouse, iv, total radioactivity; for tissue uptake at 48 h / tissue uptake at 72 h: Biodistribution
# Procedure: (§1) The distribution of [^67Ga]Ga/[^111In]In/[^177Lu]Lu-DT14D was investigated in male severe combined immunodeficiency (SCID) mice (49 mice in total, 6 weeks of age on arrival date, 22 ± 4 g, NCSR “Demokritos” Animal House, Athens, Greece) bearing NTS1R-positive AsPC-1 xenografts in their flanks. For xenograft induction, suspensions of freshly harvested AsPC-1 cells (5 × 10^6 cells in 150 µL sterile PBS) were subcutaneously injected into the mice’s flanks. The animals were kept under aseptic conditions and 4 weeks later developed well palpable masses at the inoculation sites (100 ± 50 mg) and biodistribution was conducted. On the day of the experiment, the animals received a bolus (100 μL, in vehicle: saline/EtOH 9/1 v/v) containing the radioligand via the tail vein. The following groups of four animals per time point, per treatment, were included per radioligand (the 4 h block groups comprised 3 animals instead) including the respective (radio)ligand amounts injected: i. 78–91 kBq [^67Ga]Ga-DT14D corresponding to 7–17 pmol DT14D at 1 and 4 h pi plus 4 h block (coinjection with 100 µg NT); ii. 74–92 kBq [^111In]In-DT14D corresponding to 20–25 pmol at 4 h (controls), 4 h pi (Entresto®; animals receiving a slurry of 12 mg/200 µL Entresto® oral gavage 30 min in advance) and 4 h block (coinjection with 100 µg NT); 24 h pi (including both controls and Entresto® mice groups); and iii. 730 kBq [^177Lu]Lu-DT14D corresponding to 40 pmol DT14D at 4, 24, 48, and 72 h pi plus 4 h block (co-injection with 100 µg NT). The animals were euthanized at predetermined time intervals, dissected and blood samples, organs of interest, and tumors were collected, weighed, and counted in the gamma counter. Biodistribution data were calculated as percent of the injected activity per gram tissue (%IA/g) with the aid of suitable standards of the administered activity. Results as the mean %IA/g values ± sd were obtained and statistical analysis was performed with PRISM^TM GraphPad—10.2 Software (San Diego, CA/USA), applying 2-way ANOVA with Tukey’s post hoc analysis, or, in the case of two variables, Šídák’s multiple comparisons test was adopted; differences with p < 0.05 were considered as statistically significant.
# [1] = test system: NTS1R-positive AsPC-1 xenografts; experiment: in vivo; parameters: species or system mice; details: male, SCID, mouse, iv
# Procedure: as §1
# [2] = 730 kBq, Tumor/Intestines ratio
smiles,measurement,setting,value
"CC[C@H](C)[C@H](NC(=O)[C@H](Cc1ccc(O)cc1)NC(=O)[C@@H]1CCCN1C(=O)[C@H](CCCNC(=N)N)NC(=O)[C@H](CCCNC(=N)N)NC(=O)[C@H](CCCCNC(=O)COCCOCCOCCOCCNC(=O)CCCc1ccc(C)cc1)NC(=O)CCNC(=O)CCNC(=O)CCNC(=O)CN1CCN(CC(=O)O)CCN(CC(=O)O)CCN(CC(=O)O)CC1)C(=O)N[C@@H](CC(C)C)C(=O)O [[^177Lu]Lu-DT14D, metal not drawn] ({DOTA-βAla-βAla-βAla}-K(X1)RRPYIL-OH)",tissue to tissue ratio at 72 h,"in vivo; 40 pmol, Tumor/Blood ratio",29.8 ± 7.43
same,tissue to tissue ratio at 48 h,"in vivo; 40 pmol, Tumor/Liver ratio",1.63 ± 0.14
same,tissue to tissue ratio at 72 h,"in vivo; 40 pmol, Tumor/Liver ratio",1.44 ± 0.19
same,tissue to tissue ratio at 48 h,"in vivo; 40 pmol, Tumor/Lungs ratio",11.4 ± 1
same,tissue to tissue ratio at 72 h,"in vivo; 40 pmol, Tumor/Lungs ratio",9.66 ± 1.43
same,tissue to tissue ratio at 48 h,"in vivo; 40 pmol, Tumor/Pancreas ratio",20.4 ± 1.96
same,tissue to tissue ratio at 72 h,"in vivo; 40 pmol, Tumor/Pancreas ratio",16.2 ± 5.04
same,tissue uptake at 48 h,"in vivo; 730 kBq, AsPC-1 Tumor",1.56 ± 0.17 %ID/g
same,tissue uptake at 72 h,"in vivo; 730 kBq, AsPC-1 Tumor",1.24 ± 0.2 %ID/g
same,tissue uptake at 48 h,"in vivo; 730 kBq, Blood",0.05 ± 0.01 %ID/g
same,tissue uptake at 72 h,"in vivo; 730 kBq, Blood",0.04 %ID/g
same,tissue uptake at 48 h,"in vivo; 730 kBq, Femur",0.38 ± 0.03 %ID/g
same,tissue uptake at 72 h,"in vivo; 730 kBq, Femur",0.35 ± 0.03 %ID/g
same,tissue uptake at 48 h,"in vivo; 730 kBq, Heart",0.07 ± 0.01 %ID/g
same,tissue uptake at 72 h,"in vivo; 730 kBq, Heart",0.06 ± 0.01 %ID/g
same,tissue uptake at 48 h,"in vivo; 730 kBq, Intestines",0.36 ± 0.01 %ID/g
same,tissue uptake at 72 h,"in vivo; 730 kBq, Intestines",0.27 ± 0.02 %ID/g
same,tissue uptake at 48 h,"in vivo; 730 kBq, Kidneys",0.88 ± 0.06 %ID/g
same,tissue uptake at 72 h,"in vivo; 730 kBq, Kidneys",0.57 ± 0.15 %ID/g
same,tissue uptake at 48 h,"in vivo; 730 kBq, Liver",0.96 ± 0.05 %ID/g
same,tissue uptake at 72 h,"in vivo; 730 kBq, Liver",0.86 ± 0.1 %ID/g
same,tissue uptake at 48 h,"in vivo; 730 kBq, Lungs",0.14 %ID/g
same,tissue uptake at 72 h,"in vivo; 730 kBq, Lungs",0.13 ± 0.04 %ID/g
same,tissue uptake at 48 h,"in vivo; 730 kBq, Muscle",0.04 ± 0.01 %ID/g
same,tissue uptake at 72 h,"in vivo; 730 kBq, Muscle",0.04 ± 0.02 %ID/g
same,tissue uptake at 48 h,"in vivo; 730 kBq, Pancreas",0.07 ± 0.01 %ID/g
same,tissue uptake at 72 h,"in vivo; 730 kBq, Pancreas",0.08 ± 0.02 %ID/g
same,tissue uptake at 48 h,"in vivo; 730 kBq, Spleen",1.6 ± 0.58 %ID/g
same,tissue uptake at 72 h,"in vivo; 730 kBq, Spleen",1.49 ± 0.51 %ID/g
same,tissue uptake at 48 h,"in vivo; 730 kBq, Stomach",0.07 ± 0.01 %ID/g
same,tissue uptake at 72 h,"in vivo; 730 kBq, Stomach",0.04 ± 0.01 %ID/g
same,tissue to tissue ratio at 48 h,"in vivo; 730 kBq, Tumor/Blood ratio",30.9 ± 3.67
same,tissue to tissue ratio at 48 h,"in vivo; 730 kBq, Tumor/Heart ratio",23 ± 2.32
same,tissue to tissue ratio at 72 h,"in vivo; 730 kBq, Tumor/Heart ratio",20.1 ± 3.03
same,tissue to tissue ratio at 48 h,in vivo; [2],4.28 ± 0.33
same,tissue to tissue ratio at 72 h,in vivo; [2],4.65 ± 0.91
same,tissue to tissue ratio at 48 h,"in vivo; 730 kBq, Tumor/Kidneys ratio",1.78 ± 0.3
same,tissue to tissue ratio at 72 h,"in vivo; 730 kBq, Tumor/Kidneys ratio",2.26 ± 0.49
same,tissue to tissue ratio at 48 h,"in vivo; 730 kBq, Tumor/Muscle ratio",39.2 ± 5.49
same,tissue to tissue ratio at 72 h,"in vivo; 730 kBq, Tumor/Muscle ratio",36.1 ± 14.6
same,tissue to tissue ratio at 48 h,"in vivo; 730 kBq, Tumor/Spleen ratio",1.1 ± 0.51
same,tissue to tissue ratio at 72 h,"in vivo; 730 kBq, Tumor/Spleen ratio",0.89 ± 0.25
same,tissue to tissue ratio at 48 h,"in vivo; 730 kBq, Tumor/Stomach ratio",23.8 ± 2.17
same,tissue to tissue ratio at 72 h,"in vivo; 730 kBq, Tumor/Stomach ratio",26.6 ± 5.58
CC[C@H](C)[C@H](NC(=O)[C@H](Cc1ccc(O)cc1)NC(=O)[C@@H]1CCCN1C(=O)[C@H](CCCNC(=N)N)NC(=O)[C@H](CCCNC(=N)N)NC(=O)[C@H](CCCCNC(=O)COCCOCCOCCOCCNC(=O)CCCc1ccc(C)cc1)NC(=O)CCNC(=O)CCNC(=O)CCNC(=O)CN1CCN(CC(=O)O)CCN(CC(=O)O)CCN(CC(=O)O)CC1)C(=O)N[C@@H](CC(C)C)C(=O)O [[^177Lu]Lu-DT14D] [metal not drawn] ({DOTA-βAla-βAla-βAla}-K(X1)RRPYIL-OH),"Biodistribution, Blood",[1]; 4 h,0.72 ± 0.19 %IA/g
same,"Biodistribution, Femur",[1]; 4 h,0.45 ± 0.06 %IA/g
same,"Biodistribution, Heart",[1]; 4 h,0.32 ± 0.09 %IA/g
same,"Biodistribution, Intestines",[1]; 4 h,1.27 ± 0.14 %IA/g
same,"Biodistribution, Kidneys",[1]; 4 h,3.24 ± 0.20 %IA/g
same,"Biodistribution, Liver",[1]; 4 h,1.34 ± 0.14 %IA/g
same,"Biodistribution, Lungs",[1]; 4 h,1.63 ± 0.86 %IA/g
same,"Biodistribution, Muscle",[1]; 4 h,0.11 ± 0.02 %IA/g
same,"Biodistribution, Pancreas",[1]; 4 h,0.21 ± 0.03 %IA/g
same,"Biodistribution, Spleen",[1]; 4 h,1.36 ± 0.37 %IA/g
same,"Biodistribution, Stomach",[1]; 4 h,0.33 ± 0.12 %IA/g
same,Tumor/Blood ratio,[1]; 4 h,5.51± 1.56
same,Tumor/Heart ratio,[1]; 4 h,12.36 ± 3.08
same,Tumor/Intestines ratio,[1]; 4 h,2.99 ± 0.57
same,Tumor/Kidneys ratio,[1]; 4 h,1.17 ± 0.15
same,Tumor/Liver ratio,[1]; 4 h,2.83 ± 0.45
same,Tumor/Lungs ratio,[1]; 4 h,2.97 ± 1.75
same,Tumor/Muscle ratio,[1]; 4 h,34.86 ± 6.98
same,Tumor/Pancreas ratio,[1]; 4 h,18.16 ± 3.31
same,Tumor/Spleen ratio,[1]; 4 h,2.83 ± 0.35
same,Tumor/Stomach ratio,[1]; 4 h,12.29 ± 3.81
same,"Biodistribution, Femur",[1]; 24 h,0.34 ± 0.03 %IA/g
same,"Biodistribution, Intestines",[1]; 24 h,0.45 ± 0.03 %IA/g
same,"Biodistribution, Liver",[1]; 24 h,1.18 ± 0.18 %IA/g
same,"Biodistribution, Lungs",[1]; 24 h,0.17 ± 0.01 %IA/g
same,"Biodistribution, Muscle",[1]; 24 h,0.03 ± 0.00 %IA/g
same,"Biodistribution, Spleen",[1]; 24 h,1.06 ± 0.16 %IA/g
same,Tumor/Blood ratio,[1]; 24 h,33.51 ± 2.94
same,Tumor/Heart ratio,[1]; 24 h,25.00 ± 3.78
same,Tumor/Intestines ratio,[1]; 24 h,3.95 ± 0.39
same,Tumor/Kidneys ratio,[1]; 24 h,1.46 ± 0.33
same,Tumor/Liver ratio,[1]; 24 h,1.54 ± 0.32
same,Tumor/Lungs ratio,[1]; 24 h,9.32 ± 2.56
same,Tumor/Muscle ratio,[1]; 24 h,58.07 ± 8.34
same,Tumor/Pancreas ratio,[1]; 24 h,22.31 ± 1.64
same,Tumor/Spleen ratio,[1]; 24 h,1.70 ± 0.32
same,Tumor/Stomach ratio,[1]; 24 h,31.97 ± 8.07
